Test results: patent publication US20210040073A1, “AZABICYCLO-SUBSTITUTED TRIAZOLE DERIVATIVE, PREPARATION METHOD THEREOF, AND APPLICATION OF SAME IN MEDICINE” (Jiangsu Hengrui Medicine Co., Ltd., priority 2016, published 2021)

Key:
human V1aR = molecular target: T1, human V1aR (Homo sapiens, UniProt P37288); assay: Inhibition activity on human V1aR (Fluo-4 calcium assay, HEK293/human V1aR stably transfected cells, vasopressin 3 nM); format: cell-based; details: calcium signal
T1 construct: expressed in transfected cells
T1 sequence (P37288 whole entry): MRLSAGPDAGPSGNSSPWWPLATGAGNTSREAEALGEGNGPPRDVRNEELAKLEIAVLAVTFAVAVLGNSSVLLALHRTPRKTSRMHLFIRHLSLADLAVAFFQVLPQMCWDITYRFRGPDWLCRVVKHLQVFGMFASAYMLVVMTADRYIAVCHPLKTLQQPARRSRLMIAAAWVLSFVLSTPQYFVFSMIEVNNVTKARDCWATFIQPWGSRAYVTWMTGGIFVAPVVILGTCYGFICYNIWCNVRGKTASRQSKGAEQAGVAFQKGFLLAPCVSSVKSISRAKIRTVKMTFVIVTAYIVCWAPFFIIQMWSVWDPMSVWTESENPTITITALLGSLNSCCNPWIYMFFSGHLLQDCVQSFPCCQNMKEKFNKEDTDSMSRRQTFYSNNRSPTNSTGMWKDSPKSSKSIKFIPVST
Experimental: The inhibition effect of the compounds of the present invention on the activity of human V1aR protein expressed in HEK293/human V1aR stably transfected cells was determined by the following experimental method:
The pcDNA3.1-V1aR plasmid was transferred into HEK293 cells with the Lipofectamine® 3000 transfection reagent; G418 was added on the next day to screen, and monoclonal cell lines were selected.
HEK293/human V1aR stably transfected cells were inoculated in a 96-well plate with an inoculation density of 25,000 cells/well one day in advance. On the next day, a loading buffer containing Fluo-4 dye was formulated using the reagents in the Fluo-4 NW calcium assay kit, and the culture medium was then removed; 100 μl of the loading buffer containing Fluo-4 dye were added to each well, and the plate was incubated at 37° C. for 30 minutes. After that, the plate was moved to room temperature and equilibrated for 10 minutes. The compounds were formulated into concentration gradients of 10^6, 10^5, 10^4, 10^3, 10^2 and 10^1 nM. 1 μl of the compounds in each concentration was added to each well, and the plate was incubated at room temperature for 10 minutes. […] IC50 values of the compounds were calculated by Graphpad prism software using fluorescence signals corresponding to different concentrations.
The inhibition activity of the compounds of the present invention on human V1aR was determined by the above test, and the obtained IC50 values are shown in Table 2.

human V2R = molecular target: T2, human V2R (Homo sapiens, UniProt P30518); assay: Inhibition activity on human V2R (cAMP HTRF assay, HEK293/human V2R pool cells, vasopressin); format: cell-based
T2 construct: expressed in transfected cells; host or cells: HEK293 (G418-selected pool)
T2 sequence (P30518 whole entry): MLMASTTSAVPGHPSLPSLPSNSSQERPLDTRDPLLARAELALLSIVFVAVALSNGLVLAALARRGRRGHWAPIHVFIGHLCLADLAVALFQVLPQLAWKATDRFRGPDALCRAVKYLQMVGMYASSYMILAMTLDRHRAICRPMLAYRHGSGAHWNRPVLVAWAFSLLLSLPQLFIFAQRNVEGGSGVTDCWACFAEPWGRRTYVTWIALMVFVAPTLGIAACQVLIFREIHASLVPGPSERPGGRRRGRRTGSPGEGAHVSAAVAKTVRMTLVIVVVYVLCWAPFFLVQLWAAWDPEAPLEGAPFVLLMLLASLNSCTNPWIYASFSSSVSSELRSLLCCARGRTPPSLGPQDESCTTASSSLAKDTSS
Experimental: The inhibition effect of the compounds of the present invention on the activity of human V2R protein expressed in HEK293/human V2R cells was determined by the following experimental method:
The pcDNA3.1-V2R plasmid was transferred into HEK293 cells with the Lipofectamine® 3000 transfection reagent; G418 was added on the next day, and the HEK293/human V2R pool cell lines were obtained.
HEK293/human V2R pool cells were digested with the cell dissociation solution (enzyme-free), thereby dissociating the cells from the cell culture dish into individual cells. After completion, the cell solution was blown well, and centrifuged to remove the supernatant. The cells were re-suspended in the test buffer 1 (1×HBSS+20 mM HEPES+0.1% BSA) and counted. The cell density was adjusted to 1250 cells/5 μl, i.e., 2.5*10^5/ml.
The compounds were formulated into a series of concentrations of 20 mM, 6.67 mM, 2.22 mM, 0.74 mM, 0.25 mM, 0.08 mM, 27.4 μM, 9.14 μM, 3.05 μM, 1.02 μM, 0.34 μM and 0 μM (DMSO) with pure DMSO. The compounds were then formulated into a 4-fold use concentration with the test buffer 2 (test buffer 1+1 mM IBMX).
Agonist: 460 μM vasopressin was used as the mother liquor, formulated as a 2 μM solution with DMSO, which was then diluted to a 0.5 nM solution with the test buffer 2.
Standard: The first point was 20 μl of a stock solution (2848 nM), which was diluted successively to a total of eleven concentrations in a 4-fold concentration gradient with the test buffer 1 from the second point.
1. The well-mixed cells were added to a 384-well plate (5 μl/well) without changing the tip.
2. The test compounds and positive compound formulated were added (2.5 μl/well), and the tips were changed.
3. The plate was centrifuged at 1000 rpm for 1 min, shaken for 30 sec to mix well, and incubated at room temperature for 30 min.
4. The standard curve wells were added with the test buffer 2 (5 μl/well).
5. The agonist formulated was added (2.5 μl/well), and the tips were changed; the plate was centrifuged at 1000 rpm for 1 min, shaken for 30 sec to mix well, and incubated at room temperature for 30 min.
6. cAMP-d2 (a component in the cAMP dynamic 2 kit) and Anti-cAMP-Eu-Cryptate (a component in the cAMP dynamic 2 kit) were formulated in the dark, which were then mixed well with cAMP lysate (a component in the cAMP dynamic 2 kit) in a ratio of 1:4. Each well was added with the formulated cAMP-d2 solution (5 μl/well), followed by addition of Anti-cAMP-Eu-Cryptate (5 μl/well). The plate was shaken for 30 sec to mix well, and incubated in the dark at room temperature for 1 h.
4) Plate reading: The HTRF signals were read by the PheraStar multi-function microplate reader.
The data in this test was processed using the data processing software Graphpad Prism.
The inhibition activity of the compounds of the present invention on human V2R was determined by the above test, and the obtained IC50 values are shown in Table 4.

[1] = Pharmacokinetics assay in rats after intragastrical administration; details: 2 mg/kg; for AUC / CL/F / MRT / Vd/F: plasma
Experimental: Rats were used as test animals. […] The pharmacokinetic behavior of the compounds of the present invention was studied and evaluated in rats.
After an overnight fast, SD rats were administered intragastrically the test compounds at an administration dosage of 2.0 mg/kg and an administration volume of 10.0 mL/kg.
0.2 mL of blood was taken from the orbital sinus before administration and at 0.5, 1.0, 2.0, 4.0, 6.0, 8.0, 11.0 and 24.0 hours after administration. The samples were stored in heparinized tubes, and centrifuged for 10 minutes at 4° C. at 3,500 rpm to separate the blood plasma. The plasma samples were stored at −20° C. The rats were fed 2 hours after administration.
The content of the test compounds in the plasma of rats after intragastrical administration of the test compounds at different concentrations was determined: 25 μL of rat plasma at each time after administration was taken, added with 50 μL of the internal standard solution of camptothecin (100 ng/mL) and 200 μL of acetonitrile, vortex-mixed for 5 minutes, and centrifuged for 10 minutes (4000 rpm). 1.0 μL of the supernatant was taken from the plasma samples for LC/MS/MS analysis.

[2] = both, Sprague-Dawley, rat, in vivo, po

| SMILES | IC50 (human V1aR) | IC50 (human V2R) | Plasma concentration Cmax ([1]; SD rats, intragastrical) | half-life [1, 2] | AUC ([1]; both, Sprague-Dawley, rat, po) | CL/F ([1]; both, Sprague-Dawley, rat, po) | MRT ([1]; both, Sprague-Dawley, rat, po) | Vd/F ([1]; both, Sprague-Dawley, rat, po) | Half-life T½ ([1]; SD rats, intragastrical) | Cmax [1, 2] |
| --- | --- | --- | --- | --- | --- | --- | --- | --- | --- | --- |
| COc1ccc(-n2c(COCCF)nnc2N2C[C@@H]3C[C@]3(c3ccc(F)cc3Cl)C2)cn1 [Example 1, (1S,5R)-1-(2-Chloro-4-fluorophenyl)-3-(5-((2-fluoroethoxy)methyl)-4-(6-methoxypyridin-3-yl)-4H-1,2,4-triazol-3-yl)-3-azabicyclo[3.1.0]hexane] | 1 µM | 21.4 µM |  |  |  |  |  |  |  |  |
| COCc1nnc(N2C[C@@H]3C[C@]3(c3cccc(F)c3Cl)C2)n1-c1ccc(OC)nc1 [Example 4, (1S,5R)-1-(2-Chloro-3-fluorophenyl)-3-(5-(methoxymethyl)-4-(6-methoxypyridin-3-yl)-4H-1,2,4-triazol-3-yl)-3-azabicyclo[3.1.0]hexane] | 3.8 µM | 25.7 µM |  |  |  |  |  |  |  |  |
| CCOCc1nnc(N2C[C@@H]3C[C@]3(c3ccc(F)cc3Cl)C2)n1-c1ccc(OC)nc1 [Example 6, (1S,5R)-1-(2-Chloro-4-fluorophenyl)-3-(5-(ethoxymethyl)-4-(6-methoxypyridin-3-yl)-4H-1,2,4-triazol-3-yl)-3-azabicyclo[3.1.0]hexane] | 1.7 µM | 7.3 µM | 135 ± 80.0 ng/mL | 3.47 ± 1.72 h | 1060 ± 982 ng·h/mL | 68.9 ± 58.8 mL/min/kg | 6.7 ± 0.73 h | 18 ± 17.4 L/kg |  |  |
| COCc1nnc(N2C[C@@H]3C[C@]3(c3ccc(F)cc3Cl)C2)n1-c1ccc(OC)nc1 [Example 9, (1S,5R)-1-(2-Chloro-4-fluorophenyl)-3-(5-(methoxymethyl)-4-(6-methoxypyridin-3-yl)-4H-1,2,4-triazol-3-yl)-3-azabicyclo[3.1.0]hexane] | 2.9 µM | 32.6 µM |  |  | 2040 ± 1020 ng·h/mL | 20.2 ± 10.3 mL/min/kg | 6.23 ± 4.94 h | 6 ± 4.44 L/kg | 3.98 ± 3.55 h | 350 ± 142 ng/mL |
| COc1ccc(-n2c(N3C[C@@H]4C[C@]4(c4ccc(F)cc4Cl)C3)nnc2C(F)(F)F)cn1 [Example 12, (1S,5R)-1-(2-Chloro-4-fluorophenyl)-3-(4-(6-methoxypyridin-3-yl)-5-(trifluoromethyl)-4H-1,2,4-triazol-3-yl)-3-azabicyclo[3.1.0]hexane] | 3.6 µM | 29.5 µM |  |  |  |  |  |  |  |  |
